{
  "source": "patent US20050020544A1",
  "about": "“Bicyclic CB2 cannabinoid receptor ligands” (priority 2002, published 2005)",
  "key": {"[1]": {"test_system": "IL-1β secretion from activated RAW 264.7 macrophages", "assay": "Inhibition of IL-1β in LPS activated macrophages (ELISA)", "type": "cell-based", "conditions": "Mus musculus, RAW264.7, 24 h, read-out: inhibition of IL-1β secretion", "method": "The technique used to quantify the amount of a given protein in a liquid sample, either tissue culture supernatant or body fluid, is based on Enzyme Linked ImmunoSorbent Assay (ELISA) methodology. Either commercially available or established in house, the assay is based on the capture of the protein of interest by specific antibodies bound to the bottom of an ELISA plate well. […] Again the unbound material is washed away, the samples are then incubated with the appropriate substrate yielding a calorimetric reaction. The reaction is stopped and reading is performed in a spectrophotometer at the appropriate wavelength. Samples are tested at least in duplicate and the appropriate standard curve, consisting of serial dilutions of the recombinant target protein, is incorporated on each plate. Concentration of the protein in the sample is calculated from the standard curve.\nRAW 264.7 macrophages, a mouse cell line (ATCC # TIB-71), were grown in Dulbecco's modified Eagle's medium (DMEM) with 4 mM L-glutamine adjusted to contain 1.5 g/L sodium bicarbonate, 4.5 g/L glucose, and 10% heat inactivated fetal bovine serum. Cells were grown in tissue culture flasks and seeded at appropriate density into 24 wells tissue culture plates. 0.5×10^6 Raw cells in one milliliter were stimulated with 2 μg/ml Lipopolysaccharide E. coli 055:B5 (DIFCO Laboratories). The mouse macrophages were pre-treated for one hour with controls or 10 μM of bicyclic CB2 ligands and later on activated with LPS. Dexamethasone was used as a positive control at 50 nM. Supernatant was collected 4 hours (for PGE2) and 24 hours (for IL-1β and TNF-α) after activation, and the levels of the inflammatory agent under study were determined by ELISA, as previously described. Inhibition was calculated versus vehicle treated cells."}, "[2]": {"test_system": "BALB/c inbred female mice", "assay": "ConA induced liver injury", "type": "in vivo, mouse", "conditions": "1 mg/kg i.v., 8 hours of ConA treatment", "method": "Each experimental group contains at least 5 BALB/c inbred female mice (25 g average weight, Harlan, Israel). The negative control group is composed of mice injected with saline instead of ConA. The injection of ConA (Sigma) is done i.v. at the base of the tail at the dose of 10 mg/kg in saline. The treatments are injected i.v. at 1 mg/kg, 30 minutes prior to the ConA injection. Compounds are dissolved in CREMOPHOR EL®:ethanol and vehicle only was included as an internal control.\nImpact of treatment is monitored at three levels. First, blood samples (200-400 μl) are collected at predetermined time points alter ConA injection, using retro-orbital puncture. After short centrifugation (5000 rpm for 2 min) serum is recovered and stored at −80° C. until further use for determination of cytokines levels by ELISA and aminotransferase leakage from the liver as a marker for liver injury. In parallel, the level of cytokines, or other inflammatory mediators, is also determined in the organs of interests. For this purpose, the mice are killed by dislocation of the cervical vertebrae, at predetermined time points following ConA injection. […] Cells are incubated for 24 hours and cytokine levels in the supernatant are determined by ELISA as previously described.\nThe effect of compound A on liver injury was assessed by measuring the level of ALT in the plasma following 8 hours of ConA treatment. […]"}, "C57/BL male mice": {"test_system": "C57/BL male mice", "assay": "MPTP model for Parkinson's disease, TH immunoreactivity in SNpc", "type": "in vivo, mouse", "conditions": "20 mg/kg i.p., once before first MPTP, day 7", "method": "The mice (C57/BL male mice, average weight 30 g, Harlan, Israel) were administered i.p. with 4 injections of MPTP (Sigma, USA) (20 mg/kg, 5 ml/kg) in saline (Teva Medical Israel) at 2 hours interval on day 1. The treatment groups, including: (a) Saline, untreated, (b) MPTP, untreated, (c) Vehicle (1:20of CREMOPHOR EL®:ethanol), 5 ml/kg i.p., and (d) test compounds, were administered i.p. once just before the first MPTP administration. Seven days following the MPTP treatment the animals were sacrificed (by i.p. administration of pentobarbitone sodium CTS Israel 100 mg/kg) and their brains removed for tyrosine hydroxylase (TH) detection using immunohistochemistry technique.\nBrains were fixed by cardiac perfusion with 4% Paraformaldehyde followed by immersion of the brain in the same fixative for at least 72 hours. Then brains were washed with PBS and transferred to 30% sucrose in PBS until they sank. After the brains sink in the sucrose, they were frozen using the cryostat special fast freezing (−60° C.). […] Quantitative analysis was performed by counting of immunoreactive (IR) cells at the widest dimension of the SNpc lateral to the roots of the third cranial nerve separating medial and lateral SN at the level of interpreduncular nucleus. The amount of the labeling at the striatum level was evaluated using computerized image analysis system.\nAll data are expressed as mean±SD. […]"}},
  "data": [
    {"smiles": "CCCCCCC(C)(C)c1cc(O)c(C2CC(=O)C3CC2C3(C)C)c(O)c1", "note": "(single isomer, unassigned; (-)) [Compound A, (−)-4-[4-(1,1-Dimethyl-heptyl)2,6-dihydroxy-phenyl]-6,6-dimethyl-bicyclo[3.1.1)heptan-2-one]", "values": [
      {"measurement": "inhibition at 10 µM", "setting": "[1]", "result": 76, "unit": "%"},
      {"measurement": "decrease in ALT in the plasma", "setting": "[2]", "result": 65, "unit": "%"}
    ]},
    {"smiles": "CCCCCCC(C)(C)c1cc(OC)c(C2C=C(CO)C3CC2C3(C)C)c(OC)c1", "note": "(single isomer, unassigned; (+)) [HU-308, (+) {4-[4-(1,1-dimethylheptyl)-2,6-dimethoxy-phenyl]-6,6-dimethyl-bicyclo[3.1.1]hept-2-en-2-yl}-methanol, reference compound]", "values": [
      {"measurement": "SN dopaminergic (TH-IR) cells rescued from MPTP toxicity", "setting": "C57/BL male mice", "result": "about 43%"}
    ]}
  ]
}
